What was measured:
[1] = tested on: ventral pallidal neurons; assay: Electrophysiology of ventral pallidal neurons, i.v. METH dose-response in chloral hydrate-anesthetized rats; assay type: in vivo, rat
Procedure: Based on the biochemical results and because the ventral pallidum contains one of the highest concentrations of 5-HT in the brain, electrophysiological evaluations of this region in rats behaviorally sensitized to METH were conducted (with a 5-day once daily treatment of 2.5 mg/kg). The acute challenge was intravenously administered METH (via a tail vein cannula) as previously used by T. C. Napier's lab ^e.g., [34] where the drug is given in a cumulative dosing fashion such that each dose, administered in 2 min-intervals, essentially doubles the previous dose. METH was tested using a range of 0.06-4.0 mg/kg in saline vehicle. […] Moreover, this approach establishes if systemic administration of METH, in doses that include those producing behavioral sensitization, are sufficient promote sensitized cellular responding and thus allows for direct comparisons of cellular responding to behavioral outcomes. After a 3-day withdrawal, the ability of intravenously administered METH or 1-(2,5-dimethoxy-4-iodophenyl)-2-aminopropane (DOI) to increase ventral pallidal cell firing was enhanced in chloral hydrate-anesthetized rats, as shown by a leftward shift in the dose-response curve with a […] and an increase in response efficacy for both agonists (FIG. 16) and this occurred without any changes in the portion of neurons showing a rate increase or decrease to the acute METH challenge.
Electrophysiological assessment of the ventral pallidum was also conducted 30 days after repeated METH. […] For each experiment, an i.v. METH dose-response curve (METH was tested using a range of 0.06-2.0 mg/kg in saline vehicle) was generated for one ventral pallidal neuron per rat at 30 days withdrawal from repeated METH. Based on the analysis of curves where there was an excitatory effect of i.v. METH on ventral pallidal neurons (171 animals), there was a diminished excitatory effect of i.v. METH in the ventral pallidum of rats that were pretreated with METH only. This is illustrated by both the curves and corresponding Emax data in FIG. 17. This decrease only at long-term withdrawal mirrors the reduction seen in pallidal pCREB only after 14, but not at 3 day withdrawal from repeated METH (see Example III).

[2] = tested on: cocaine seeking behaviors; conditions: rats, cited from earlier work; for maintenance of cocaine self-administration: 0.25-1 mg/kg, cocaine 0.5 mg/kg/infusion iv
[3] = tested on: METH-conditioned rats; assay: METH-induced conditioned place preference (CPP) with simultaneous motor sensitization; assay type: in vivo, rat; conditions: single home cage injection 0.03, 0.1 or 1.0 mg/kg SDZ SER 082 24 h before test (FIG. 13)
Text: The CPP box (Accuscan, Columbus, Ohio) consists of three Plexiglas compartments, each with distinct visual and tactile cues (on one side, patterned floor with object attached and horizontally striped wall; on the opposite side, smooth floor with no object and vertically striped walls; center—uniformly white floor and walls). The center compartment can be separated from the left and right compartments by removable guillotine doors. Motor activity in three dimensional space, and time spent, in each compartment is detected by two sets of photobeams set at different heights from the floor. Drug conditioning is performed by administering METH to the rat while it is in one compartment, and on the alternating day, saline is administered while the rat is confined to the opposite compartment. Confinement was achieved by blocking access to other compartments using the guillotine door. The center compartment is not seen by the rat during conditioning, and all conditioning sessions last for 45 min.
The inventors have determined that the number of METH-pairings, and the dose of METH, dictate the strength of the drug-environment association (i.e., the magnitude of salience attribution). The test for CPP is determined in a METH-free state (i.e., at least 48 hr after that last METH pairing), at which time the rats are placed in the center compartment and allowed free access to all compartments for 30 min, and the time spent in each compartment is the index of preference. The inventors have determined that the number of METH-pairings, and the dose of METH, dictate the strength of the drug-environment association (i.e., the magnitude of salience attribution) and thus the amount of time spent in the compartment previously paired with METH (FIG. 7), as well as persistence of this effect (i.e., how long it lasts; FIG. 8A). METH-induced motor sensitization can be assessed in several ways, including assessing the capacity of the rat to express an enhanced motor response to an acute METH challenge (FIGS. 9 & 10A).
To efficiently apply this approach to testing of 5-HT2A/2C antagonists, we determined that single pairing protocols of the CPP paradigm can be used to predict efficacy outcomes of 5-HT2A/2C antagonists in long-term tests on these drugs evaluating their capacity to nullify the persistent enhanced salience induced by METH. […] Thus, these protocols should help predict the capacity of novel therapeutic targets to halt a common problem of drug relapse, i.e., the ability of re-exposure to drugs like METH to immediately reinstate their abuse.

[4] = molecular target: T1, 5-HT2C (Homo sapiens, UniProt P28335); conditions: read-out: receptor affinity (Ki) 5-HT2C; cited from earlier work
T1 sequence (P28335 33-458): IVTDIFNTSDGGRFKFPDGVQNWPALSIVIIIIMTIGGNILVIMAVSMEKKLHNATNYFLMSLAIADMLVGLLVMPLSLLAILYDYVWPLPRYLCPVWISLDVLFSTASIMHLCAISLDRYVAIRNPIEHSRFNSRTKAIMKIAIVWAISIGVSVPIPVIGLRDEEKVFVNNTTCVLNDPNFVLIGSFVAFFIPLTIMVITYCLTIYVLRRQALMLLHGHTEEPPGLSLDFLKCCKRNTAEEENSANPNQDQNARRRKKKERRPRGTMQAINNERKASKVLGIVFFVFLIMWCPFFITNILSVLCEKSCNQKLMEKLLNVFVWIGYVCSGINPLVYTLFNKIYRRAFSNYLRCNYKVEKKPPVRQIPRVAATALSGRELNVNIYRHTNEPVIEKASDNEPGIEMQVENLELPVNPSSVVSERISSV

[5] = molecular target: D2 (Homo sapiens, UniProt P14416); conditions: read-out: receptor affinity (Ki) D2; cited from earlier work
D2, sequence (P14416 whole entry): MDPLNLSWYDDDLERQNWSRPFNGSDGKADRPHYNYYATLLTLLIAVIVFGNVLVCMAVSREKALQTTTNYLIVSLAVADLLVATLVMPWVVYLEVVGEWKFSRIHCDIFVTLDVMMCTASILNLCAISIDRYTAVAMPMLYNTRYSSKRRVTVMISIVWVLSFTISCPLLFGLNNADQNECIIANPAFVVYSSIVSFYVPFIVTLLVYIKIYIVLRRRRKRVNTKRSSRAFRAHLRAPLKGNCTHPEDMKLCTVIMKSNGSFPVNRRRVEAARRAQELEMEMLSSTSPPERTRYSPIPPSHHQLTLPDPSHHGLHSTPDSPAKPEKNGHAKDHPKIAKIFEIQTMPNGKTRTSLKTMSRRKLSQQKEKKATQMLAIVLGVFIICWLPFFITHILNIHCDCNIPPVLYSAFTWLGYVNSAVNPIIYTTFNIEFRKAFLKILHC

[6] = molecular target: T2, 5-HT1A (Homo sapiens, UniProt P08908); conditions: read-out: receptor affinity (Ki) 5-HT1A; cited from earlier work
T2 sequence (P08908 1-422): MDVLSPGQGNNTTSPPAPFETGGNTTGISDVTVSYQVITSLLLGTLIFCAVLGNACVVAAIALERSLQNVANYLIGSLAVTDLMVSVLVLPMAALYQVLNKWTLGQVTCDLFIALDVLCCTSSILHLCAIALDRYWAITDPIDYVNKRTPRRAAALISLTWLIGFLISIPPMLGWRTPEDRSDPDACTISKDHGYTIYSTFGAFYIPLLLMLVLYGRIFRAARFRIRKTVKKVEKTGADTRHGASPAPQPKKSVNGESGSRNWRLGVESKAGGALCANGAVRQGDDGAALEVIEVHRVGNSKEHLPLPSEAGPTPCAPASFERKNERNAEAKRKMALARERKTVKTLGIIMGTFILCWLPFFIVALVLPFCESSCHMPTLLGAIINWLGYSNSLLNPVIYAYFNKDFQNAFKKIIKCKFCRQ

[7] = molecular target: T3, 5-HT3 (Homo sapiens, UniProt P46098); conditions: read-out: receptor affinity (Ki) 5-HT3; cited from earlier work
T3 sequence (P46098 24-478): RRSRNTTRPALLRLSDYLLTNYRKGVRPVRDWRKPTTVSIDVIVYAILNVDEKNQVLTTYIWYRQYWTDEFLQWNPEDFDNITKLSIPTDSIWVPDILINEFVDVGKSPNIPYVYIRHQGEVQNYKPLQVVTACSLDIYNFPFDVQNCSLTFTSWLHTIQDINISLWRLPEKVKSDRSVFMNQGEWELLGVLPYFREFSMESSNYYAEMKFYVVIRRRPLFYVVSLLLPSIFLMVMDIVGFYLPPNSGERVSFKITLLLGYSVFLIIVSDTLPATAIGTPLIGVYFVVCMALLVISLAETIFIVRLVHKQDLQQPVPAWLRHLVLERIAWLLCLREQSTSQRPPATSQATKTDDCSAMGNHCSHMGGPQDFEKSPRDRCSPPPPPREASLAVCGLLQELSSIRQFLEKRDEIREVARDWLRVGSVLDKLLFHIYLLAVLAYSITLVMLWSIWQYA

[8] = molecular target: a; conditions: read-out: receptor affinity (Ki) a; cited from earlier work
[9] = molecular target: 5-HT2A (Homo sapiens, UniProt P28223); conditions: read-out: receptor affinity (Ki) 5-HT2A; cited from earlier work
5-HT2A, sequence (P28223 whole entry, species assumed): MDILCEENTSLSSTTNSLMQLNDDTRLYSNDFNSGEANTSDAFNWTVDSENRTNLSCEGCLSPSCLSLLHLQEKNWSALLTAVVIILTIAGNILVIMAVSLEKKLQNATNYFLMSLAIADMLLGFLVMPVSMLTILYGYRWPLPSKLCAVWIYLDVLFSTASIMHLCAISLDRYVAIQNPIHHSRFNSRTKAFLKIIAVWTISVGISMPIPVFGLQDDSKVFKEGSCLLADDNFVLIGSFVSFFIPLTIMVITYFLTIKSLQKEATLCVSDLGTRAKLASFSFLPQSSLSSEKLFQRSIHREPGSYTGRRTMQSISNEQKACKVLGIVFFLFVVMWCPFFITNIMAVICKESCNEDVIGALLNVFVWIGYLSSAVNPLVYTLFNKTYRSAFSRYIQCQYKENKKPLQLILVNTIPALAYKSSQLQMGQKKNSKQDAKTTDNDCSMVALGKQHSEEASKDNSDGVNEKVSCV

[10] = molecular target: D1 (Homo sapiens, UniProt P21728); conditions: read-out: receptor affinity (Ki) D1; cited from earlier work
D1, sequence (P21728 whole entry): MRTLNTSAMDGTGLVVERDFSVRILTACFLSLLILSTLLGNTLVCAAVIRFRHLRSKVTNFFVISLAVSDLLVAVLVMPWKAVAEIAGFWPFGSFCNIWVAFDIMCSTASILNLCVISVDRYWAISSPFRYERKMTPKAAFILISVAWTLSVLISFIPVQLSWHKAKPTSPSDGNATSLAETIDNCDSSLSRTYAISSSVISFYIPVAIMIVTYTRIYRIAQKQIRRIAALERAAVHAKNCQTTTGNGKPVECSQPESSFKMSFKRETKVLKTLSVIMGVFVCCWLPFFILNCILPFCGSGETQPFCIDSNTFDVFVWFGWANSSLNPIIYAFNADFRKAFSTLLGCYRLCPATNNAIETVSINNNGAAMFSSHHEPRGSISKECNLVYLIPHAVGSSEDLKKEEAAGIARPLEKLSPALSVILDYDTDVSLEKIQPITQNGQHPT

[11] = tested on: METH-sensitized rats; assay: Reversal of METH-induced behavioral sensitization by 5-HT2A/2C antagonists (motor activity after acute METH challenge); assay type: in vivo, rat; conditions: ketanserin 1 mg/kg once daily M-F 3 weeks; 1 mg/kg METH challenge w/d day 30/31
Text: Automation of observational evaluations was accomplished using computerized small animal monitors (AccuScan Instr. Inc., Columbus, Ohio). […] One feature of drug-induced behavioral sensitization is heterogeneity of motor responses and the AccuScan monitors quantify numerous behavioral indices. This is a critical point for the motor profile is exquisitely related to METH dose, the drug history of the rat and observation time. After 3- or 31-days of withdrawal from repeated METH injections, rats were allowed to achieve baseline motor activity with a 30 min habituation period, challenged with 1 mg/kg sc METH and monitored for 90 min.
Multiple 5-HT2A/2C antagonists with differing pharmacological profiles were tested for their ability to ameliorate METH-induced behavioral sensitization when administered after sensitization has developed. […] The doses were selected based on the antagonists' ability to block 5-HT2A- and 5-HT2C-mediated activity and their pharmacokinetic profiles.

[12] = tested on: cocaine-induced behavioral sensitization; conditions: given in acute withdrawal period from cocaine dosing; cited from earlier work

CN[C@@H](C)Cc1ccccc1 [METH, Methamphetamine]
Emax of Firing Rate Increases of Acute Meth ([1]; repeated METH days 1-5, then vehicle, P < 0.05 vs saline + vehicle): 161% ± 16% (n = 11)

CN1CCC2CN3CCc4cccc(c43)C2C1 (stereo not drawn) [SDZ SER 082, 4,5,7a,8,9,10,11,11 a,-octahydro-7H-10-methylindolo[1,7,bc][2,6]-napthyridine]
maintenance of cocaine self-administration [2]: Neither SR 46349B (0.25-1 mg/kg) nor SDZ SER 082 (0.25-1 mg/kg) altered
cue- and cocaine priming-induced reinstatement ([2]; cocaine priming 10 mg/kg ip or cue): failed to alter
METH-induced CPP after single pairing of 1.0 METH [3]: reverses METH-induced CPP in a dose-dependent fashion
Ki [4]: 15 nM
Ki [5]: > 1000 nM
Ki [6]: 800 nM
Ki [7]: > 1000 nM
Ki [8]: > 1000 nM
Ki [9]: 600 nM
Ki [10]: > 1000 nM

CN(C)CCO/N=C(/C=C/c1ccc(O)cc1)c1ccccc1F.CN(C)CCO/N=C(/C=C/c1ccc(O)cc1)c1ccccc1F.O=C(O)/C=C/C(=O)O [SR 46349B]
maintenance of cocaine self-administration [2]: Neither SR 46349B (0.25-1 mg/kg) nor SDZ SER 082 (0.25-1 mg/kg) altered

O=C(c1ccc(F)cc1)C1CCN(CCn2c(=O)[nH]c3ccccc3c2=O)CC1 [ketanserin]
effect on horizontal activity and vertical movements in METH-pretreated group [11]: appeared to potentiate the effect
locomotor effects on saline-pretreated animals (acute METH challenge) [11]: did not produce any locomotor effects
established behavioral sensitization to cocaine [12]: reverse the established behavioral sensitization
Emax of Firing Rate Increases of Acute Meth ([1]; METH days 1-5, then antagonist, tested 31 days after last METH): 177% ± 18% (n = 4)

CN1CCN2c3ccccc3Cc3ccccc3C2C1 (stereo not drawn) [mianserin]
established behavioral sensitization to cocaine [12]: reverse the established behavioral sensitization

Cc1nccn1CC1CCc2c(c3ccccc3n2C)C1=O (stereo not drawn) [ondansetron]
established behavioral sensitization to cocaine [12]: reverse the established behavioral sensitization

Reference: patent US20060035889A1, “Treatment for methamphetamine addiction and reduction of methamphetamine use using serotonin antagonists” (priority 2004, published 2006)
